Measurements taken from patent publication US20060069132A1, “Azolecarboxamide herbicides” (priority 2004, published 2006).

How the values were obtained:
rice [1] = experiment: Test B pre-/postemergence herbicide test; assay type: in vivo, Oryza sativa; settings: preemergence
How it was run: (§1)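 Test chemicals in a non-phytotoxic solvent mixture with surfactant were applied preemergence to seeded species and postemergence to plants 2-18 cm tall (1- to 4-leaf stage); rice and barnyardgrass were also tested in a flooded paddy at the 2-leaf stage. Visual rating versus controls after 13-15 days in greenhouse, scale 0 (no effect) to 100 (complete control).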

velvetleaf [2] = experiment: Test B pre-/postemergence herbicide test; assay type: in vivo, Abutilon theophrasti; settings: for Velvetleaf plant response rating: postemergence, visual rating, scale 0 (no effect) to 100 (complete control)
How it was run: as §1

morningglory [3] = experiment: Test B pre-/postemergence herbicide test; assay type: in vivo, Ipomoea coccinea; settings: for Morningglory plant response rating: postemergence, visual rating, scale 0 (no effect) to 100 (complete control)
How it was run: as §1

wheat = experiment: Test B postemergence herbicide test; assay type: in vivo, Triticum aestivum; design: key to Wheat plant response rating: 0 = no effect, 100 = complete control; settings: postemergence, visual rating, scale 0 (no effect) to 100 (complete control)
How it was run: (§2)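 Each value is a visual 0–100 response rating taken against controls 13 to 15 days after treatment in the greenhouse. Plants received formulated chemical postemergence at the 1- to 4-leaf stage or, in flooded paddy, at the 2-leaf stage.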

corn = experiment: Test B pre-/postemergence herbicide test; assay type: in vivo, Zea mays; settings: for Corn plant response rating: postemergence, visual rating, scale 0 (no effect) to 100 (complete control)
How it was run: as §1

barnyardgrass [4] = experiment: Test B flooded paddy test; assay type: in vivo, Echinochloa crus-galli; settings: 1000 g ai/ha, visual rating, scale 0 to 100 (0 no effect, 100 complete control), 13 to 15 days
How it was run: (§3)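 Paddy species grown to the 2-leaf stage under flooding; blackgrass sprayed postemergence at 2–18 cm (1- to 4-leaf stage). Plants kept in a greenhouse for 13 to 15 days, then visually rated against controls on 0 (no effect) to 100 (complete control).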

barnyardgrass [5] = experiment: Test A pre-/postemergence herbicide test; assay type: in vivo, Echinochloa crus-galli
How it was run: (§4)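 Pre: seeded sandy loam, directed soil spray, compound in non-phytotoxic solvent + surfactant. Post: 1–2-leaf plants (2–10 cm), sprayed to runoff. Greenhouse ~10 d; visual injury vs untreated, 0–100 scale.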

pigweed = experiment: Test B pre-/postemergence herbicide test; assay type: in vivo, Amaranthus retroflexus; settings: for Pigweed plant response rating: postemergence, visual rating, scale 0 (no effect) to 100 (complete control)
How it was run: as §1

rice [6] = experiment: Test B flooded paddy test; assay type: in vivo, Oryza sativa; settings: 1000 g ai/ha, visual rating, scale 0 to 100 (0 no effect, 100 complete control), 13 to 15 days
How it was run: as §3

[7] = test system: small flower umbrella sedge; experiment: Test B flooded paddy test; assay type: in vivo, Cyperus difformis; settings: 1000 g ai/ha, visual rating, scale 0 to 100 (0 no effect, 100 complete control), 13 to 15 days
How it was run: as §3

cocklebur = experiment: Test B pre-/postemergence herbicide test; assay type: in vivo, Xanthium strumarium; settings: for Cocklebur plant response rating: postemergence, visual rating, scale 0 (no effect) to 100 (complete control)
How it was run: as §1

redroot pigweed = experiment: Test A pre-/postemergence herbicide test; assay type: in vivo, Amaranthus retroflexus
How it was run: as §4

barnyardgrass [8] = experiment: Test B pre-/postemergence herbicide test; assay type: in vivo, Echinochloa crus-galli; settings: for Barnyardgrass plant response rating: postemergence, visual rating, scale 0 (no effect) to 100 (complete control)
How it was run: as §1

morningglory [9] = experiment: Test A pre-/postemergence herbicide test; assay type: in vivo, Ipomoea spp.
How it was run: as §4

lambsquarters = experiment: Test B pre-/postemergence herbicide test; assay type: in vivo, Chenopodium album; settings: for Lambsquarters plant response rating: postemergence, visual rating, scale 0 (no effect) to 100 (complete control)
How it was run: as §1

large crabgrass [10] = experiment: Test B pre-/postemergence herbicide test; assay type: in vivo, Digitaria sanguinalis; settings: for Crabgrass, Large plant response rating: postemergence, visual rating, scale 0 (no effect) to 100 (complete control)
How it was run: as §1

wild oat = experiment: Test B postemergence herbicide test; assay type: in vivo, Avena fatua; settings: postemergence, visual rating, scale 0 (no effect) to 100 (complete control)
How it was run: as §2

velvetleaf [11] = experiment: Test A pre-/postemergence herbicide test; assay type: in vivo, Abutilon theophrasti
How it was run: as §4

large crabgrass [12] = experiment: Test A pre-/postemergence herbicide test; assay type: in vivo, Digitaria sanguinalis
How it was run: as §4

giant foxtail [13] = experiment: Test B pre-/postemergence herbicide test; assay type: in vivo, Setaria faberi; settings: for Foxtail, Giant plant response rating: postemergence, visual rating, scale 0 (no effect) to 100 (complete control)
How it was run: as §1

Surinam grass = experiment: Test B pre-/postemergence herbicide test; assay type: in vivo, Urochloa decumbens; settings: for Surinam Grass plant response rating: postemergence, visual rating, scale 0 (no effect) to 100 (complete control)
How it was run: as §1

ducksalad = experiment: Test B flooded paddy test; assay type: in vivo, Heteranthera limosa; settings: 1000 g ai/ha, visual rating, scale 0 to 100 (0 no effect, 100 complete control), 13 to 15 days
How it was run: as §3

giant foxtail [14] = experiment: Test A pre-/postemergence herbicide test; assay type: in vivo, Setaria faberi
How it was run: as §4

blackgrass = experiment: Test B postemergence herbicide test; assay type: in vivo, Alopecurus myosuroides; settings: postemergence, visual rating, scale 0 (no effect) to 100 (complete control)
How it was run: as §3

[15] = 125 g ai/ha, 0 = no effect, 100 = complete control, preemergence
[16] = 500 g ai/ha, visual rating 0-100, 0 no effect, 100 complete control, preemergence
[17] = Postemergence, 500 g ai/ha, 0 to 100 scale, 0 no effect, 100 complete control
[18] = Postemergence, 2000 g ai/ha, 0 to 100 scale, 0 no effect, 100 complete control
[19] = Preemergence, 2000 g ai/ha, visual rating, 0 to 100 scale (0 no effect, 100 complete control)
[20] = preemergence, 500 g ai/ha, visual injury, 0 to 100 scale (0 no effect, 100 complete control)

For Cc1nc(C(C)(C)C)sc1C(=O)Nc1cccc(C(=O)NCCF)c1 [Compound 200], the “Rice plant response rating (0 to 100 scale)” value (rice [1]; 125 g ai/ha, 0 = no effect, 100 = complete control) was 0, the “Plant response rating, Rice” value (rice [1]; 500 g ai/ha, visual rating 0-100, 0 no effect, 100 complete control) was 10 and the “Velvetleaf plant response rating (0 to 100 scale)” value (velvetleaf [2]; [15]) was 0. For the same compound, the “Plant response rating, Velvetleaf” value (velvetleaf [2]; [16]) was 20, the “Velvetleaf plant response rating” value (velvetleaf [2]; 125 g ai/ha) was 10 and the “Velvetleaf plant response rating” value (velvetleaf [2]; 500 g ai/ha) was 30. For the same compound, the “Morningglory plant response rating (0 to 100 scale)” value (morningglory [3]; [15]) was 0, the “Plant response rating, Morningglory” value (morningglory [3]; [16]) was 10 and the “Morningglory plant response rating” value (morningglory [3]; 125 g ai/ha) was 0. For the same compound, the “Morningglory plant response rating” value (morningglory [3]; 500 g ai/ha) was 40, the “Wheat plant response rating” value (wheat; 125 g ai/ha) was 0 and the “Wheat plant response rating” value (wheat; 500 g ai/ha) was 0. For the same compound, the “Corn plant response rating (0 to 100 scale)” value (corn; [15]) was 0, the “Plant response rating, Corn” value (corn; [16]) was 0 and the “Corn plant response rating” value (corn; 125 g ai/ha) was 10. For the same compound, the “Corn plant response rating” value (corn; 500 g ai/ha) was 30, the “Barnyardgrass plant response rating” value (barnyardgrass [4]) was 0 and the “Barnyardgrass plant response rating” value (barnyardgrass [5]; [17]) was 10. For the same compound, the “Plant response rating, Barnyardgrass” value (barnyardgrass [5]; [18]) was 35, the “Barnyardgrass plant response rating” value (barnyardgrass [5]; [19]) was 45 and the “Barnyardgrass plant response rating” value (barnyardgrass [5]; [20]) was 35. For the same compound, the “Pigweed plant response rating (0 to 100 scale)” value (pigweed; [15]) was 10, the “Plant response rating, Pigweed” value (pigweed; [16]) was 90 and the “Pigweed plant response rating” value (pigweed; 125 g ai/ha) was 10. The “Pigweed plant response rating” value (pigweed; 500 g ai/ha) was 40, the “Rice plant response rating” value (rice [6]) was 0 and the “Sedge, Umbrella plant response rating” value [7] was 50. For the same compound, the “Cocklebur plant response rating (0 to 100 scale)” value (cocklebur; [15]) was 0, the “Plant response rating, Cocklebur” value (cocklebur; [16]) was 0 and the “Cocklebur plant response rating” value (cocklebur; 125 g ai/ha) was 10. The “Cocklebur plant response rating” value (cocklebur; 500 g ai/ha) was 20, the “Pigweed plant response rating” value (redroot pigweed; [17]) was 50 and the “Plant response rating, Pigweed” value (redroot pigweed; [18]) was 60. The “Pigweed plant response rating” value (redroot pigweed; [19]) was 95, the “Pigweed plant response rating” value (redroot pigweed; [20]) was 80 and the “Barnyardgrass plant response rating (0 to 100 scale)” value (barnyardgrass [8]; [15]) was 0. For the same compound, the “Plant response rating, Barnyardgrass” value (barnyardgrass [8]; [16]) was 20, the “Barnyardgrass plant response rating” value (barnyardgrass [8]; 125 g ai/ha) was 0 and the “Barnyardgrass plant response rating” value (barnyardgrass [8]; 500 g ai/ha) was 10. The “Morningglory plant response rating” value (morningglory [9]; [17]) was 35, the “Plant response rating, Morningglory” value (morningglory [9]; [18]) was 45 and the “Morningglory plant response rating” value (morningglory [9]; [19]) was 60. The “Morningglory plant response rating” value (morningglory [9]; [20]) was 15, the “Lambsquarters plant response rating (0 to 100 scale)” value (lambsquarters; [15]) was 20 and the “Plant response rating, Lambsquarters” value (lambsquarters; [16]) was 80. For the same compound, the “Lambsquarters plant response rating” value (lambsquarters; 125 g ai/ha) was 60, the “Lambsquarters plant response rating” value (lambsquarters; 500 g ai/ha) was 60 and the “Crabgrass, Large plant response rating (0 to 100 scale)” value (large crabgrass [10]; [15]) was 50. The “Plant response rating, Crabgrass, Large” value (large crabgrass [10]; [16]) was 90, the “Crabgrass, Large plant response rating” value (large crabgrass [10]; 125 g ai/ha) was 0 and the “Crabgrass, Large plant response rating” value (large crabgrass [10]; 500 g ai/ha) was 10. For the same compound, the “Oat, Wild plant response rating” value (wild oat; 125 g ai/ha) was 0, the “Oat, Wild plant response rating” value (wild oat; 500 g ai/ha) was 10 and the “Velvetleaf plant response rating” value (velvetleaf [11]; [17]) was 10. For the same compound, the “Plant response rating, Velvetleaf” value (velvetleaf [11]; [18]) was 10, the “Velvetleaf plant response rating” value (velvetleaf [11]; [19]) was 35 and the “Velvetleaf plant response rating” value (velvetleaf [11]; [20]) was 20. For the same compound, the “Crabgrass, Large plant response rating” value (large crabgrass [12]; [17]) was 10, the “Plant response rating, Crabgrass, Large” value (large crabgrass [12]; [18]) was 25 and the “Crabgrass, Large plant response rating” value (large crabgrass [12]; [19]) was 75. For the same compound, the “Crabgrass, Large plant response rating” value (large crabgrass [12]; [20]) was 70, the “Foxtail, Giant plant response rating (0 to 100 scale)” value (giant foxtail [13]; [15]) was 0 and the “Plant response rating, Foxtail, Giant” value (giant foxtail [13]; [16]) was 10. The “Foxtail, Giant plant response rating” value (giant foxtail [13]; 125 g ai/ha) was 10, the “Foxtail, Giant plant response rating” value (giant foxtail [13]; 500 g ai/ha) was 10 and the “Surinam Grass plant response rating (0 to 100 scale)” value (Surinam grass; [15]) was 0. For the same compound, the “Plant response rating, Surinam Grass” value (Surinam grass; [16]) was 10, the “Surinam Grass plant response rating” value (Surinam grass; 125 g ai/ha) was 10 and the “Surinam Grass plant response rating” value (Surinam grass; 500 g ai/ha) was 20. The “Ducksalad plant response rating” value (ducksalad) was 0, the “Foxtail, Giant plant response rating” value (giant foxtail [14]; [17]) was 0 and the “Plant response rating, Foxtail, Giant” value (giant foxtail [14]; [18]) was 20. The “Foxtail, Giant plant response rating” value (giant foxtail [14]; [19]) was 60, the “Foxtail, Giant plant response rating” value (giant foxtail [14]; [20]) was 35 and the “Blackgrass plant response rating” value (blackgrass; 125 g ai/ha) was 0. For the same compound, the “Blackgrass plant response rating” value (blackgrass; 500 g ai/ha) was 10.
